Measurements as given in patent US20230181520A1, “USE OF HYDROPEROXY ALCOHOLS AND THE DERIVATIVES THEREOF AS ANTIMICROBIAL AGENTS” (DEMETA, priority 2019, published 2023).

Assays:
Format in all cases: cell-based
[1] = test system: Pseudomonas aeruginosa; assay: Surface antibacterial test, CFU count on support; details: P. aeruginosa; 24 h of contact at ambient temperature; sample solution 10 000 ppm in DMSO dried on inert support
Description: The tests were carried out at the surface: a solution of sample at 10 000 ppm in DMSO for a sample of HPA at 72% purity (i.e. […] of active material) was dried on an inert support. Once the solution had dried, a volume of inoculum of each bacterial strain was placed on the support in contact with the sample for 0 and 24 h at ambient temperature. In order to verify the nontoxicity of the DMSO, a pure solution of DMSO was dried on the support under the same conditions as the samples. A nontreated support (noted support control in FIG. 1) was also inoculated, in order to verify the stability of the strains under the conditions of the test. In order to quantify the contamination at each measurement time, a count was performed by spreading out, at the surface or in the mass, of decimal dilutions of the sample on TSA agar or Columbia agar (for C. acnes). The results were expressed in “colony-forming units” (CFUs) on the support. The Bacterial Strains Targeted are: Gram−: Pseudomonas aeruginosa

[2] = test system: Enterococcus hirae; assay: Surface antibacterial test, CFU count on support; details: E. hirae; 24 h of contact at ambient temperature; sample solution 10 000 ppm in DMSO dried on inert support
Description: (§1) The tests were carried out at the surface: a solution of sample at 10 000 ppm in DMSO for a sample of HPA at 72% purity (i.e. […] of active material) was dried on an inert support. Once the solution had dried, a volume of inoculum of each bacterial strain was placed on the support in contact with the sample for 0 and 24 h at ambient temperature. In order to verify the nontoxicity of the DMSO, a pure solution of DMSO was dried on the support under the same conditions as the samples. A nontreated support (noted support control in FIG. 1) was also inoculated, in order to verify the stability of the strains under the conditions of the test. In order to quantify the contamination at each measurement time, a count was performed by spreading out, at the surface or in the mass, of decimal dilutions of the sample on TSA agar or Columbia agar (for C. acnes). The results were expressed in “colony-forming units” (CFUs) on the support. The Bacterial Strains Targeted are: Gram+: Cutibacterium acnes, Enterococcus hirae, Staphylococcus aureus

[3] = test system: Staphylococcus aureus; assay: Surface antibacterial test, CFU count on support; details: S. aureus; 24 h of contact at ambient temperature; sample solution 10 000 ppm in DMSO dried on inert support
Description: as §1

[4] = test system: Cutibacterium acnes; assay: Surface antibacterial test, CFU count on support (Columbia agar); details: C. acnes; 24 h of contact at ambient temperature; sample solution 10 000 ppm in DMSO dried on inert support
Description: as §1

Which “logarithmic reduction in the population relative to t=0” value [1] does the source give for “9(10)-hydroperoxy-10(9)-hydroxystearic acid [hydroperoxy alcohol of oleic acid]” here?
The value was “approximately 4 log 10”.

And the “logarithmic reduction of the population relative to t=0” value [2]?
Its value is “approximately 5 log 10”.

And the “logarithmic reduction of the population relative to t=0” value [3]?
Its value is “approximately 5 log 10”.

What about the “logarithmic reduction of the population relative to t=0” value [4] of the same substance?
The value was “approximately 6 log 10”.
